Patent US20110201582A1, “METHOD AND COMPOSITION FOR TREATMENT OF SKIN CONDITIONS” (priority 2004, published 2011)
“Also recorded” adds a separate entry of the source. Counter-ions that a name gives are not always drawn.

Test system: eczema, seborrheic dermatitis and allergic skin reactions
Assay: Applicant's general experiments: compounds applied to the affected skin area alone or before a topical corticosteroid
Type: in vivo, adult patient
Conditions: for effectiveness in alleviating the symptoms: applied alone, with no steroid; for enhancement of effectiveness of the topical corticosteroid: applied to affected area prior to the topical corticosteroid, compared with topical corticosteroid alone; for effectiveness compared with hydrocortisone 2.5% alone: decongestant alone applied before hydrocortisone 0.5%
Protocol: The experiments were conducted in order to try to treat these conditions as well as to try to enhance the performance of hydrocortisone and other topical corticosteroids in the treatment of these conditions.
With respect to the use of compounds to try to enhance the effectiveness of topical corticosteroids, the experiments involved first applying to the affected area particular compounds and then shortly thereafter applying to the same affected area a topical corticosteroid. For example, compounds that were tried include eye drop solutions, nasal decongestant sprays and other kinds of compounds available over the counter or by prescription. Antihistamine and decongestant combinations were tried as a solution to be applied to the affected area prior to the application of the steroid. In addition, antihistamines alone (preceding the corticosteroid) and decongestants alone (preceding the corticosteroid) were tried. As stated above, antihistamines alone (without the corticosteroid) and decongestants alone (without the corticosteroid) were also tried.
An increase in effectiveness is defined as greater alleviation of the dermatological symptoms of the condition or speedier alleviation of the dermatological symptoms of the condition or both.
That is, the identical experiment was conducted for the same condition but without preceding (or following) the application of the corticosteroid cream with an application of any solution in according with the method of the present invention.

Row | Structure (SMILES) | effectiveness in alleviating the symptoms (HCL) | enhancement of effectiveness of the topical corticosteroid | effectiveness compared with hydrocortisone 2.5% alone | enhancement of effectiveness of the topical corticosteroid (HCL)
1 | CNC[C@H](O)c1cccc(O)c1 [phenylephrine HCL] | works somewhat to alleviate dermatological symptoms, albeit not fantastically; also recorded: mildly effective alleviation | only mild enhancement of effectiveness | performs better | –
2 | c1ccc2c(CC3=NCCN3)cccc2c1 [naphazoline HCL] | works somewhat to alleviate dermatological symptoms, albeit not fantastically; also recorded: mildly effective alleviation | – | performs better | slightly greater than that of a topical corticosteroid alone; also recorded: only mild enhancement of effectiveness
